Results: article PMC9820559, “Investigation of the Fuzzy Complex between RSV Nucleoprotein and Phosphoprotein to Optimize an Inhibition Assay by Fluorescence Polarization” (International Journal of Molecular Sciences, 2022)
Several values for one entry are separate records, joined by “and”; a condition that tells them apart may be missing. Equal values may be shown once. Read-outs that look alike come from different tables or passages of the source. Square brackets hold non-standard residues; d marks the D form. Peptide text beside a SMILES is read from it. * marks the point of attachment. BODIPY(FL) = CC1=CC(C)=[N+]2C1=Cc1ccc(CCC(=O)*)n1[B-]2(F)F; FITC = O=C1OC2(c3ccc(O)cc3Oc3cc(O)ccc32)c2ccc(NC(=S)*)cc21; pS = N[C@@H](COP(=O)(O)O)C(=O)O

What was measured:
RSV N-RNA complex [1] = target: T1, RSV N-RNA complex (Human respiratory syncytial virus A, UniProt P03418); assay: Fluorescence polarization inhibition of N-RNA binding to fluorescent probes
T1 construct: Full-length N was produced by co-expression with the C-terminal domain of RSV P protein in E. coli BL21(DE3); made in house; host or cells: E. coli BL21(DE3), co-transformed with pET-N and pGEX-P(161–241)
T1 sequence (P03418 whole entry, looked up, the tested form may be a part, one chain of several): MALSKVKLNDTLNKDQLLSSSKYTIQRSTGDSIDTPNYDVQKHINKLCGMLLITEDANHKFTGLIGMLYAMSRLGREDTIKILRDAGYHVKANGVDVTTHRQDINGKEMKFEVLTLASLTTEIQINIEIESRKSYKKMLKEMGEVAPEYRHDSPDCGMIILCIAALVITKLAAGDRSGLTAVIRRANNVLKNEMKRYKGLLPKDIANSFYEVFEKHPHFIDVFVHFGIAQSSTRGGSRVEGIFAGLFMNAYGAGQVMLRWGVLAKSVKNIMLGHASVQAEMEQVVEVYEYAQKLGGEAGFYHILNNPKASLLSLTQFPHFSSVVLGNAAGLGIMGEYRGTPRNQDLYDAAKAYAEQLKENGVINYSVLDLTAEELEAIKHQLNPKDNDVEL
Excerpt: We next performed inhibition experiments for the F11-(N-RNA) complex by M76 (Figure 4B). FP values decreased with increasing competitor concentration. At saturation, FP nearly reached the value of free F11, showing that the F11 peptide could be nearly completely displaced. Since the same concentration range was used for NNTD and N-RNA, poor solubility of M76 can be ruled out to explain the saturation observed before complete displacement of F11 in the presence NNTD (Figure 3C). This reinforces the hypothesis of a second binding site on NNTD, outside the canonical P-binding site. […]
To probe the potency of M76 as an inhibitor, we carried out competition experiments with the M76 molecule and several BCNn peptides. M76 was able to displace the fluorescent probes from N-RNA, and inhibition curves were obtained (Figure 8E). Since we used different N concentrations to have similar dynamic ranges of FP for the series of fluorescent peptides, we cannot directly compare M76 IC50s. However, Kis may be compared.
(§1) Fluorescence polarization measurements were carried out on a Paradigm Detection Platform (Beckman Coulter, Brea, CA, USA) operating with a microplate reader, a fluorescein detection cartridge (excitation range 485/20 nm, emission range 535/25 nm for both parallel and perpendicular components) and the SpectraMax Pro 6.1 software (Molecular Devices, San Jose, CA, USA). Samples were placed in polystyrene black flat bottom 96-well microplates (Cellstar, Greiner bio-one, Frickenhausen, Germany) with 20 µL final volume in each well. If not stated otherwise, the final concentration of fluorescent ligands was 200 nM. The buffer was either 20 mM MES pH 6.5, salt-free or with 250 mM NaCl, or 20 mM Tris pH 8.0 salt-free or with 100 mM NaCl, supplemented with 0.01% Brij-35. Mixing was done using the corresponding plate reader option. The temperature was set to 20 °C. Data were recorded in top reading mode. Measurements were done in triplicate and after an incubation time of 30 min, if not indicated otherwise. Fluorescence polarization (FP) in mFP units was determined from the parallel (I∥) and perpendicular (I⊥) components of the emitted light according to Equation (4). A grating factor G of 1.2 was determined using 1 nM fluorescein in 1 mM NaOH and assuming a theoretical FP of 27 mFP [48]. Background signal was measured from wells containing only buffer, and the mean value was subtracted from each I∥ and I⊥ component. (4) FP (mP)=1000×(I∥−G∗I⊥)/(I∥+G×I⊥)
To assess inhibition of a complex between a fluorescent probe and N protein by peptides or the M76 molecule, the concentration of N was set to work with an FP range comprised between FPmin and ~80% FPmax. Peptides were added from 1 or 2 mM stock solution in water at neutral pH. M76 was added from 10 or 20 mM stock solutions in ethanol or in DMSO. […] Inhibition data were fitted with Origin 7, and in parallel with the Excel solver module. All data were compatible with an absence of cooperativity. FPmax and FPmin were fitted, and the maximal inhibition %i,max was set to 100%. (11) %i=100×[1−(FP−FPmin)/(FPmax−FPmin)] (12) %i=%i,max×[inhibitor]/[inhibitor]+IC50
Inhibition constants Ki were calculated on the IC50-to-Ki converter for a protein-ligand-inhibitor system (https://bioinfo-abcc.ncifcrf.gov/IC50_Ki_Converter/index.php, accessed on 24 August 2022), assuming a competitive mechanism (Equation (13)). This tool takes into account the free concentrations of protein and ligand. (13) Ki=(IC50−[protein]/2)/([peptide]/Kd+1)

RSV NNTD = target: T2, RSV NNTD (Human respiratory syncytial virus A, UniProt P03418); assay: Fluorescence polarization inhibition of NNTD binding to F11
T2 construct: The N-terminal domain NNTD (residues 31–252), containing a C-terminal 6x histidine tag; 6xHis (C); made in house; host or cells: E. coli BL21(DE3)
T2 sequence (P03418 31-252): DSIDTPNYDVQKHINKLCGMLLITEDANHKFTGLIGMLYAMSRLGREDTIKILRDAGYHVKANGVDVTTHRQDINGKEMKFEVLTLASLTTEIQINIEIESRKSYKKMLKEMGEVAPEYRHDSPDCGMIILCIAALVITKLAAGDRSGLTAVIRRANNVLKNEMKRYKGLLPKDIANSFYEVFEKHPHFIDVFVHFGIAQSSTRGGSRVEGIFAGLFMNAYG
Procedure: We therefore tested competition between M76 and F11 by FP. Measurements were done in salt-free buffer to take advantage of the higher F11-NNTD affinity. The concentration of NNTD was set to 5 µM to benefit from a high range of FP values, comprised between FPmin and ~80% FPmax. […] We fitted the data with a Hill equation (Equation (12)), assuming that the maximal inhibition of F11 binding to the canonical site by M76 was obtained at saturation.
Fluorescence polarization measurements were carried out on a Paradigm Detection Platform (Beckman Coulter, Brea, CA, USA) operating with a microplate reader, a fluorescein detection cartridge (excitation range 485/20 nm, emission range 535/25 nm for both parallel and perpendicular components) and the SpectraMax Pro 6.1 software (Molecular Devices, San Jose, CA, USA). […] Mixing was done using the corresponding plate reader option. […] Data were recorded in top reading mode. […] Fluorescence polarization (FP) in mFP units was determined from the parallel (I∥) and perpendicular (I⊥) components of the emitted light according to Equation (4). A grating factor G of 1.2 was determined using 1 nM fluorescein in 1 mM NaOH and assuming a theoretical FP of 27 mFP [48]. Background signal was measured from wells containing only buffer, and the mean value was subtracted from each I∥ and I⊥ component. […]

[2] = Chemical stability of fluorescently labeled P peptides; format: physicochemical; conditions: slightly acidic conditions / HPLC purification and FP assay conditions
Procedure: We started by labeling the pP11 peptide with N-terminally attached BODIPY FL, as described by Shapiro at al.. […] We then produced F11, another labelled peptide P11, by changing the fluorescent label to fluorescein-5-thiourea (FTU) by coupling with fluorescein-5-isothiocyanate (FITC). […] To directly compare FP and NMR data, we made measurements in MES pH 6.5 buffer. Brij-35 detergent (0.01% w/v) was added below its critical micellar concentration (0.11% w/v) to prevent spurious binding of the peptide to the reading plates. […] We tested buffer with and without salt.
Such derivatives were recently described as tags for bioconjugation, but, to our knowledge, not for an FP assay. […] To assess the properties of BODIPY FL as a fluorescent label for P peptides, we produced a new series of eight dicyano BODIPY FL-labeled (BCNn) peptides of variable length (Table 4) and tested them for N-RNA binding.

RSV N-RNA complex [3] = target: T1, RSV N-RNA complex; assay: biochemical; format: binding; conditions: Kd, Fn peptides 200 nM, Tris pH 8.0 without salt; single site binding model
Procedure: We carried out FP measurements using the fluorescent F11 peptide and N-RNA complex. […] No salt was added to promote high affinity.
We first measured binding of Fn peptides (200 nM) to N-RNA in Tris buffer by FP (Figure 5A,B). […] We fitted the data with ΔFPmax and Kd as parameters.
We therefore measured fluorescein FP in the presence of N-RNA. […] To test if fluorescein binds to the P-binding site on the N-RNA, we carried out a competition experiment with M76 (Figure 6C).
We first performed FP measurements in salt-free Tris pH 8 buffer (Figure 8A). We measured binding curves using 200 nM of fluorescent peptides.
as §1
We assumed that the measured fluorescence polarization FP is a linear combination of the FP of the fluorescent probe in the absence of N protein (FPmin) and the FP of N-bound fluorescent probe (FPmax), weighted by the molar fraction. The molar fraction x = [P]bound/[P]0 can then be expressed as a ratio of FP differences (Equation (8)). (8) x=(FP−FPmin)/(FPmax−FPmin)=∆FP/∆FPmax
To determine the Kd value of a complex between a fluorescent probe and N protein, a series of samples with constant probe concentration and varying N concentration was measured. FP binding curves were fitted with a single binding site model and a 1:1 stoichiometry.

O=C(O)c1cc(C(=O)O)n(Cc2ccc(Cl)cc2Cl)n1 [M76, 1-(2,4-dichlorobenzyl)-1H-pyrazole-3,5-dicarboxylic acid]
IC50 (RSV N-RNA complex [1]; fluorescent probe F7E 200 nM, 10 µM N-RNA, Tris pH 8 without salt, read-out: IC50): 48 ± 5 µM | Ki (RSV N-RNA complex [1]; fluorescent probe F7E 200 nM, 10 µM N-RNA, from IC50 and Kd 2.5 µM, read-out: Ki): 8 µM | IC50 (RSV N-RNA complex [1]; fluorescent probe F11 200 nM, 10 µM N-RNA, Tris pH 8 without salt, read-out: IC50): 12.6 µM and 13 µM | Ki (RSV N-RNA complex [1]; fluorescent probe F11 200 nM, 10 µM N-RNA, from IC50 and Kd 7.6 µM with IC50-to-Ki server, read-out: Ki): 3 µM | IC50 (RSV N-RNA complex [1]; fluorescent probe fluorescein 1 200 nM, 20 µM N-RNA, read-out: M76 IC50): 27 ± 2 µM | Ki (RSV N-RNA complex [1]; fluorescent probe fluorescein 1, 20 µM N-RNA, from IC50 and Kd, read-out: M76 Ki): 13 µM | IC50 (RSV N-RNA complex [1]; fluorescent probe fluorescein ethyl ester 3 200 nM, 20 µM N-RNA, read-out: M76 IC50): 65 ± 9 µM | Ki (RSV N-RNA complex [1]; fluorescent probe fluorescein ethyl ester 3, 20 µM N-RNA, from IC50 and Kd, read-out: M76 Ki): 50 µM | IC50 (RSV N-RNA complex [1]; fluorescent probe fluorescein methyl ester 2 200 nM, 20 µM N-RNA, read-out: M76 IC50): 46 ± 7 µM | Ki (RSV N-RNA complex [1]; fluorescent probe fluorescein methyl ester 2, 20 µM N-RNA, from IC50 and Kd, read-out: M76 Ki): 32 µM | IC50 (RSV N-RNA complex [1]; probe BCN5E 200 nM, [N-RNA] 2 µM, Tris pH 8, read-out: Fitted IC50): 7 ± 0.6 µM | IC50 (RSV N-RNA complex [1]; probe BCN5E 200 nM, [N-RNA] 20 µM, Tris pH 8, read-out: Fitted IC50): 26 ± 2 µM | Ki (RSV N-RNA complex [1]; probe BCN5E, [N-RNA] 2 µM, IC50-to-Ki server, read-out: Ki): 4.8 µM | Ki (RSV N-RNA complex [1]; probe BCN5E, [N-RNA] 20 µM, IC50-to-Ki server, read-out: Ki): 3.6 µM | Ki (RSV N-RNA complex [1]; probe BCN5E, [N-RNA] 2 and 20 µM, read-out: Ki values for inhibition of BCN5E): 3.6 to 4.8 µM | IC50 (RSV N-RNA complex [1]; probe BCN6E 200 nM, [N-RNA] 2 µM, Tris pH 8, read-out: Fitted IC50): 2.7 ± 0.2 µM | IC50 (RSV N-RNA complex [1]; probe BCN6E 200 nM, [N-RNA] 10 µM, Tris pH 8, read-out: Fitted IC50): 14 ± 1 µM | Ki (RSV N-RNA complex [1]; probe BCN6E, [N-RNA] 2 µM, IC50-to-Ki server, read-out: Ki): 0.7 µM | Ki (RSV N-RNA complex [1]; probe BCN6E, [N-RNA] 10 µM, IC50-to-Ki server, read-out: Ki): 1.1 µM | IC50 (RSV N-RNA complex [1]; probe BCN8E 200 nM, [N-RNA] 2 µM, Tris pH 8, read-out: Fitted IC50): 4.5 ± 0.4 µM | IC50 (RSV N-RNA complex [1]; probe BCN8E 200 nM, [N-RNA] 5 µM, Tris pH 8, read-out: Fitted IC50): 13 ± 2 µM | Ki (RSV N-RNA complex [1]; probe BCN8E, [N-RNA] 2 µM, IC50-to-Ki server, read-out: Ki): 1.3 µM | Ki (RSV N-RNA complex [1]; probe BCN8E, [N-RNA] 5 µM, IC50-to-Ki server, read-out: Ki): 2 µM | IC50 (RSV N-RNA complex [1]; probe BCN10EE 200 nM, [N-RNA] 2 µM, Tris pH 8, read-out: Fitted IC50): 8.9 ± 0.6 µM | IC50 (RSV N-RNA complex [1]; probe BCN10EE 200 nM, inhibitor M76, [N-RNA] 1 µM, Tris pH 8, read-out: Fitted IC50): 8.5 ± 0.6 µM | Ki (RSV N-RNA complex [1]; probe BCN10EE, [N-RNA] 2 µM, IC50-to-Ki server, read-out: Ki): 0.5 µM | Ki (RSV N-RNA complex [1]; probe BCN10EE, inhibitor M76, [N-RNA] 1 µM, IC50-to-Ki server, read-out: Ki): 1.1 µM | IC50 (RSV N-RNA complex [1]; probe BCN11SE 200 nM, [N-RNA] 5 µM, Tris pH 8, read-out: Fitted IC50): 17 ± 2 µM | Ki (RSV N-RNA complex [1]; probe BCN11SE, [N-RNA] 5 µM, IC50-to-Ki server, read-out: Ki): 1.8 µM | IC50 (RSV NNTD): 28 ± 5 µM | Ki (RSV NNTD): 2.5 µM

Cc1cc(C)n2c1C=C1C=CC(CCC(=O)N[C@@H](CC(=O)O)C(=O)N[C@@H](COP(=O)(O)O)C(=O)N[C@@H](CC(=O)O)C(=O)N[C@@H](CC(N)=O)C(=O)N[C@@H](CC(=O)O)C(=O)N[C@@H](CC(C)C)C(=O)N[C@@H](COP(=O)(O)O)C(=O)N[C@@H](CC(C)C)C(=O)N[C@@H](CCC(=O)O)C(=O)N[C@@H](CC(=O)O)C(=O)N[C@@H](Cc3ccccc3)C(=O)O)=[N+]1[B-]2(F)F [BF2pP11] ({BODIPY(FL)}-D[pS]DNDL[pS]LEDF-OH)
chemical stability [2]: prone to degradation

CC(C)C[C@H](NC(=O)[C@H](CO)NC(=O)[C@H](CC(C)C)NC(=O)[C@H](CC(=O)O)NC(=O)[C@H](CC(N)=O)NC(=O)[C@H](CC(=O)O)NC(=O)[C@H](CO)NC(=O)[C@H](CC(=O)O)NC(=S)Nc1ccc2c(c1)C(=O)OC21c2ccc(O)cc2Oc2cc(O)ccc21)C(=O)N[C@@H](CCC(=O)O)C(=O)N[C@@H](CC(=O)O)C(=O)N[C@@H](Cc1ccccc1)C(=O)O [F11, ϕ-DS232DNDLS237LEDF-OH] ({FITC}-DSDNDLSLEDF-OH)
Kd (RSV N-RNA complex [3]): 7.6 ± 0.9 µM | chemical stability [2]: stable
